Test results published in ChEMBL document CHEMBL1151375, “Potential antitumor agents. XVII. physalin B and 25,26-epidihydrophysalin C from Witheringia coccoloboides” (1981).
Converted amounts (≈) assume the structure as drawn.

Experiments:
Format in all cases: functional
[1] = In vivo cytotoxicity against mouse 3PS cells at 300 mg/kg
[2] = Cytotoxicity against mouse 9PS cells; settings: read-out: ED50 (the source's name)
[3] = Cytotoxicity against human 9KB cells; settings: read-out: ED50 (the source's name)

Structure (SMILES)	T/C [1] [%]	EC50 [2] [µg/mL]	EC50 [3] [µg/mL]
C[C@]12C(=O)C=CCC1=CC[C@@H]1[C@@H]2CC[C@]2(O)C(=O)O[C@@]3(C)[C@H]4C[C@]5(C)[C@@H](CO[C@@]16O[C@@]32[C@H]5C6=O)C(=O)O4 [PHYSALIN B]	137	0.01 (≈ 0.0196 µM)	3.1 (≈ 6.07 µM)
C[C@@H]1C(=O)O[C@@H]2C[C@@]1(C)[C@@H]1C(=O)[C@]3(O)O[C@]14[C@@]2(C)OC(=O)[C@@]4(O)CC[C@H]1[C@H]3CC=C2CC=CC(=O)[C@@]21C		0.89 (≈ 1.74 µM)	12 (≈ 23.4 µM)
C[C@@]12C[C@H]3OC(=O)[C@@H]1CO[C@]14O[C@@]5([C@H]2C1=O)[C@@]3(C)OC(=O)[C@@]5(O)CC[C@H]1[C@H]4C[C@@H]2O[C@@]23CC=CC(=O)[C@]13C [5-ALPHA,6-ALPHA-EPOXYPHYSALIN B]		1.6 (≈ 3.04 µM)	0.43 (≈ 0.817 µM)
